Measurements taken from US20150259331A1, “PROTOZOAN PARASITE GROWTH INHIBITORS” (Northeastern University, priority 2014, published 2015).

Legend:
[1] = tested on: T. brucei brucei Lister 427; assay: Trypanosome replication assay; format: cell-based, Trypanosoma brucei brucei; details: Trypanosoma brucei, 48 h, concentration giving 50% inhibition of growth of T brucei brucei Lister 427 cells; 48 h; values ±7%; read-out: Tbb EC50
[2] = tested on: HepG2 cells; assay: HepG2 cell toxicity (MTT) assay; format: cell-based; details: Table 13; read-out: HepG2 TC50
[3] = tested on: T. cruzi; assay: T. cruzi growth inhibition; format: cell-based, Trypanosoma cruzi; details: Trypanosoma cruzi
[4] = tested on: L. major promastigote; assay: L. major promastigote assay; format: cell-based; details: Leishmania major
[5] = tested on: L. major amastigote; assay: L. major amastigote assay; format: cell-based; details: Leishmania major
[6] = tested on: P. fal; assay: P. fal assay of Table 13 (strain not given); format: cell-based, P. falciparum; details: Plasmodium falciparum

SMILES	EC50 [1] [nM]	CC50 [2] [nM]	EC50 [3] [nM]	EC50 [4] [nM]	EC50 [5] [nM]	EC50 [6] [nM]
Fc1cccc(COc2ccc(Nc3ccnc4cc(-c5cccc(N6CCOCC6)c5)ccc34)cc2Cl)c1 [NEU-942, N-(3-Chloro-4-((3-fluorobenzyl)oxy)phenyl)-7-(3-morpholinophenyl)quinolin-4-amine]	1200	> 5000	2700	1400	> 3000	61
CN1CCCN(S(=O)(=O)c2ccc(-c3ccc4c(Nc5ccc(OCc6cccc(F)c6)c(Cl)c5)ccnc4c3)cc2)CC1 [NEU-943, N-(3-Chloro-4-((3-fluorobenzyl)oxy)phenyl)-7-(4-((4-methyl-1,4-diazepan-1-yl)sulfonyl)phenyl)quinolin-4-amine]	87	5000	730	400	880	94
O=S(=O)(c1ccc(-c2ccc3c(Nc4ccc(OCc5ccccc5)c(Cl)c4)nccc3c2)cc1)N1CCOCC1 [NEU-948, N-(4-(Benzyloxy)-3-chlorophenyl)-6-(4-(morpholinosulfonyl)phenyl)isoquinolin-1-amine]	91	> 5000	> 50000	> 15000	> 3000	3400
CN1CCCN(S(=O)(=O)c2ccc(-c3ccc4nccc(Nc5ccc(OCc6cccc(F)c6)c(Cl)c5)c4c3)cc2)CC1 [NEU-958, N-(3-Chloro-4-((3-fluorobenzyl)oxy)phenyl)-6-(4-((4-methyl-1,4-diazepan-1-yl)sulfonyl)phenyl)quinolin-4-amine]	140	4300	930	400	2300	86
CN1CCCN(S(=O)(=O)c2ccc(-c3ccc4ccnc(Nc5ccc(OCc6cccc(F)c6)c(Cl)c5)c4c3)cc2)CC1 [NEU-962, N-(3-Chloro-4-((3-fluorobenzyl)oxy)phenyl)-7-(4-((4-methyl-1,4-diazepan-1-yl)sulfonyl)phenyl)isoquinolin-1-amine]	730		4700	1300	2200	86
CN1CCCN(S(=O)(=O)c2ccc(-c3ccc4c(Nc5ccc(OCc6cccc(F)c6)c(Cl)c5)nccc4c3)cc2)CC1 [NEU-963, N-(3-Chloro-4-((3-fluorobenzyl)oxy)phenyl)-6-(4-((4-methyl-1,4-diazepan-1-yl)sulfonyl)phenyl)isoquinolin-1-amine]	390		33000	440	4400	410
CN1CCN(S(=O)(=O)c2ccc(-c3ccc4nncc(Nc5ccc(OCc6cccc(F)c6)c(Cl)c5)c4c3)cc2)CC1 [NEU-1003, N-(3-Chloro-4-((3-fluorobenzyl)oxy)phenyl)-6-(4-((4-methylpiperazin-1-yl)sulfonyl)phenyl)cinnolin-4-amine]	980		> 50000	> 15000	1900	130
CN1CCN(S(=O)(=O)c2ccc(-c3ccc4c(Nc5ccc(OCc6cccc(F)c6)c(Cl)c5)cnnc4c3)cc2)CC1 [NEU-1016, N-(3-Chloro-4-((3-fluorobenzyl)oxy)phenyl)-7-(4-((4-methylpiperazin-1-yl)sulfonyl)phenyl)cinnolin-4-amine]	1000		3100	5700	2000	14
Fc1cccc(COc2ccc(Nc3nncc4ccc(-c5cccc(N6CCOCC6)c5)cc34)cc2Cl)c1 [NEU-1035, N-(3-Chloro-4-((3-fluorobenzyl)oxy)phenyl)-7-(3-morpholinophenyl)phthalazin-1-amine]	290		> 50000	> 15000	1700	110
Fc1cccc(COc2ccc(Nc3nncc4cc(-c5cccc(N6CCOCC6)c5)ccc34)cc2Cl)c1 [NEU-1037, N-(3-Chloro-4-((3-fluorobenzyl)oxy)phenyl)-6-(3-morpholinophenyl)phthalazin-1-amine]	1400		> 50000	> 15000	2200	240
